# PMC5059467, “Anti-tubulin drugs conjugated to anti-ErbB antibodies selectively radiosensitize” (Nature Communications, 2016)
# Square brackets hold non-standard residues; d marks the D form. Peptide text beside a SMILES is read from it. * marks the point of attachment. Dolaproine = CO[C@@H]([C@@H]1CCCN1)[C@@H](C)C(=O)O; Dil = CC[C@H](C)[C@H](NC)[C@@H](CC(=O)O)OC; X1 = C[C@@H](N*)[C@@H](O)c1ccccc1; NMeV = CN[C@H](C(=O)O)C(C)C
# Key:
# CALU3 cells = assay: Neutral comet assay after IR, CALU3 cells; assay type: cell-based, human; conditions: 2 nM overnight, 6 Gy, compared with vehicle or 20 nM antibody
# Method: (§1) Cells were collected 15 min post IR, suspended in agarose gel and lysed per assay directions (Trevigen). Samples underwent electrophoresis under neutral conditions and were then stained with Sybr Green. Comet tails were counted in multiple fields (>60 cells per sample) and analysed using CometScore (TriTek Corp). Comet tail length was normalized to vehicle-treated, non-irradiated cells.
# OE19 cells [1] = assay: Neutral comet assay after IR, OE19 cells; assay type: cell-based, human
# Method: as §1
# CAL-27 cells [2] = assay: Clonogenic cell survival (SF2), CAL-27 cells; assay type: cell-based, human; conditions: compared with vehicle
# Method: Following IR, cells were counted, re-plated at varying cell numbers in drug-free media. […] Surviving fraction at 2 Gy (SF2) was calculated as the fraction of cells surviving 2 Gy compared with non-irradiated cells.
# OE19 cells [3] = assay: Cell cycle profile (propidium iodide, flow cytometry), OE19 cells; assay type: cell-based, human; conditions: overnight treatment
# Method: (§2) Cells were treated with RNAse, stained with propidium iodide (PI) and analysed by FACS using FloJo software.
# CAL-27 cells [4] = assay: Cell cycle profile (propidium iodide, flow cytometry), CAL-27 cells; assay type: cell-based, human; conditions: overnight treatment
# Method: as §2
# CAL-27 tumour xenografts = assay: CAL-27 tumour xenograft growth with or without IR; assay type: in vivo, mice; conditions: Fig 4f, 0.5 nmol cetuximab or C-MMAE, 2 nmol free MMAE on day 0
# Method: (§3) CAL-27, OE19, NCI N87 and HCT116 tumour xenografts were established and tumour growth was measured with digital calipers. Tumour volume was measured blindly to treatment group and calculated using the formula as ½ × length × width^2. Mice were randomized into groups once the average tumour volume reached >100 mm^3. Mice were assigned to indicated groups in ‘Results'. […] For irradiated mice, the tumour-bearing hindlimbs were focally irradiated while the remainder of the mouse was shielded from IR with custom designed lead blocking >95% of the dose as verified by dosimeters placed on the mouse. […] To prevent unnecessary morbidity, mice were killed if tumour length exceeded 15 mm per protocol. Nonlinear regression least squares fit was used to calculate tumour volume doubling times. […] To minimize the number of mice used, tumours were grown in the bilateral flanks.
# [5] = parameters: method as in PMID 25681274; conditions: cited from earlier work
# [6] = test system: cell lines irrespective of HER2 expression; assay: Alamar blue cell viability, cell lines irrespective of HER2 expression; assay type: cell-based, human; conditions: fairly consistent across cell lines irrespective of HER2 expression; 72–96 h
# [7] = test system: HER2+ and HER2− cell lines; assay: Neutral comet assay after IR, HER2+ and HER2− cell lines; assay type: cell-based, human; conditions: 20 nM overnight, 2 Gy
# Method: as §1
# HCT116 cells [8] = assay: Clonogenic cell survival (SF2), HCT116 cells; assay type: cell-based, human; conditions: 5 nM overnight then 2 Gy, compared with vehicle
# Method: Following IR, cells were counted, re-plated at varying cell numbers in drug-free media. 10–14 days after initial seeding formed colonies were methanol fixed, stained with crystal violet and counted. Surviving fraction at 2 Gy (SF2) was calculated as the fraction of cells surviving 2 Gy compared with non-irradiated cells.
# HCT116 cells [9] = assay: Cell cycle profile (propidium iodide, flow cytometry), HCT116 cells; assay type: cell-based, human; conditions: overnight treatment
# Method: as §2
# CAL-27 cells [10] = test system: CAL-27 cells
# Method: (§4) Alamar Blue (resazurin) was added to the cells and allowed to incubate for 2–4 h at 37 °C. Plates were analysed using a plate reader with fluorescence measured at 560 nm.
# OE19 cells [11] = assay: Alamar blue cell viability, OE19 cells; assay type: cell-based, human; conditions: HER2+ OE19; 72–96 h
# HCT116 cells [12] = conditions: read-out: IC50 (cell viability); HER2- HCT116; 72–96 h
# Method: as §4
# NCI N87 cells = conditions: read-out: IC50 (cell viability); HER2+ NCI N87 (gastric cancer); 72–96 h
# Method: as §4
# OE19 tumour xenografts = assay: OE19 tumour xenograft growth with or without IR; assay type: in vivo, mice; conditions: for Tumour doubling time in days (mean, 95% CI): OE19 (HER2+)
# Method: as §3
# [13] = test system: NCI N87 tumour xenografts; assay: NCI N87 tumour xenograft growth with or without IR; assay type: in vivo, mice; conditions: for Tumour doubling time in days (mean, 95% CI): NCI N87 (HER2+)
# Method: as §3
# HCT116 tumour xenografts = assay: HCT116 tumour xenograft growth with or without IR; assay type: in vivo, mice; conditions: for Tumour doubling time in days (mean, 95% CI): HCT116 (HER2−)
# Method: as §3
# OE19 tumours = assay: Immunohistochemistry of OE19 tumour xenografts (pS10 Histone H3, cleaved caspase 3); assay type: in vivo, mice; conditions: tumours harvested 48 h after drug
# Method: Tissue sections were cut from blocks of formalin-fixed paraffin embedded xenografts. Four micron thick tissue sections were stained with antibodies to phospho-histone H3 (pH3, Abcam, catalogue number ab32107) and cleaved caspase-3 (ClC3, Cell Signaling Technology, catalogue number 9661) and used at dilutions of 1:300 and 1:900, respectively. Slides were stained on a Ventana Discovery Ultra (Ventana Medical Systems, Tucson, AZ, USA). Antigen retrieval was performed using CC1 for 24–40 min at 95 °C. The primary antibodies were incubated on the sections for 1 h at 37 °C. Primary antibodies were visualized used DAB as a chromagen using the UltraMap system (Ventana Medical systems) followed by hematoxylin as a counterstain. Slides were rinsed, dehydrated through alcohol and xylene and coverslipped.
# Immunostained slides were scanned using an Axio Scan.Z1 (Zeiss; Oberkochen, Germany). […] Whole-slide images were imported into Definiens Software for quantitative analysis (Definiens; Munich, Germany). […] For analysis of pH3 (a nuclear stain), the total number of nuclei and the total number of nuclei showing DAB staining (pH3 positive cells) were recorded within each ROI. The percent of positive nuclei was then calculated for each sample. For analysis of ClC3 (a cytoplasmic stain), mean DAB chromagen intensity was measured and calculated within the ROI for each sample.
# [14] = 0.25 nmol (∼1.9 mg kg^−1) day 0, 2.5 Gy days 1, 2 and 3
# [15] = 0.25 nmol T-DM1 i.v. day 0, +IR 2.5 Gy on days 1, 2 and 3, extrapolated
compound,measurement,setting,value
"CC[C@H](C)[C@@H]([C@@H](CC(=O)N1CCC[C@H]1[C@H](OC)[C@@H](C)C(=O)N[C@H](C)[C@@H](O)c1ccccc1)OC)N(C)C(=O)[C@@H](NC(=O)[C@@H](NC)C(C)C)C(C)C [MMAE, monomethyl auristatin E] (H-[NMeV]V[Dil][Dolaproine]-X1)",effect on IR induced comet tail length,CALU3 cells,increased comet tail length to a similar degree
same,effect on IR induced comet tail length,"OE19 cells [1]; 2 nM overnight, 6 Gy, compared with vehicle, 20 nM antibody or 2 nM C-MMAE",further increased comet tail length
same,surviving fraction following 2 Gy (SF2),CAL-27 cells [2]; drug overnight then 2 Gy,decreased
same,cell cycle profile (G2/M),OE19 cells [3],accumulating in G2/M
same,cell cycle profile (G2/M),CAL-27 cells [4],accumulating in G2/M
same,"Mean Diff. Control vs. treatment + IR (Tukey's multiple comparisons, tumour volume)","CAL-27 tumour xenografts; day 35, + IR 3 Gy on days 1 and 2",246.7
same,"Mean Diff. Control vs. treatment (Tukey's multiple comparisons, tumour volume)","CAL-27 tumour xenografts; day 35, no IR",272
same,concentration level effective as radiosensitizer,[5],single nM level
COc1cc2cc(c1Cl)N(C)C(=O)C[C@H](OC(=O)[C@H](C)N(C)C(=O)CCS)[C@]1(C)O[C@H]1[C@H](C)[C@@H]1C[C@@](O)(NC(=O)O1)[C@H](OC)/C=C/C=C(\C)C2 [mertansine],IC50,[6],~10 nM
same,"radiosensitization (IR induced DNA double-strand breaks, comet tail length)",[7],radiosensitized by increasing IR induced DNA double-strand breaks in both HER2+ and HER2− cell lines
same,surviving fraction following 2 Gy (SF2),CAL-27 cells [2]; 5 nM mertansine overnight then 2 Gy,decreased further
same,surviving fraction following 2 Gy (SF2),HCT116 cells [8],decreased further
same,cell cycle profile (G2/M),OE19 cells [3],increased the accumulation
same,cell cycle profile (G2/M),HCT116 cells [9],increased the accumulation
CC(=O)O[C@H]1C(=O)[C@@]2(C)[C@H]([C@H](OC(=O)c3ccccc3)[C@]3(O)C[C@H](OC(=O)[C@H](O)[C@@H](NC(=O)c4ccccc4)c4ccccc4)C(C)=C1C3(C)C)[C@]1(OC(C)=O)CO[C@@H]1C[C@@H]2O [paclitaxel],"cytotoxic potency, paclitaxel compared with T-DM1","CAL-27 cells [10]; HER2- CAL-27 cells, 96 hours",more potent than T-DM1
ado-trastuzumab emtansine [T-DM1],IC50,OE19 cells [11],< 1 nM
same,IC50,"CAL-27 cells [10]; read-out: IC50 (cell viability), HER2- CAL-27, 72–96 h",> 100 nM
same,IC50,HCT116 cells [12],> 100 nM
same,IC50,NCI N87 cells,< 1 nM
same,radiosensitization (comet tail length),"OE19 cells [1]; 2 nM T-DM1, irradiated OE19 (HER2+)",radiosensitized
same,"radiosensitization (IR induced DNA double-strand breaks, comet tail length)",[7],restricted radiosensitization of HER2+ cells
same,cell cycle profile (G2/M),OE19 cells [3],blocked OE19 cells in G2/M
same,cell cycle profile (G2/M),HCT116 cells [9],resembled vehicle-treated cells
same,tumour regression with T-DM1 and IR,OE19 tumour xenografts; [14],significantly prolonged tumour regression
same,"Tumour doubling time in days (mean, 95% CI)",OE19 tumour xenografts; [15],66 (33+) days
same,"Tumour doubling time in days (mean, 95% CI)","OE19 tumour xenografts; 0.25 nmol i.v. day 0, no IR",11 (8–17) days
same,slowing of tumour growth compared with control or trastuzumab,"OE19 tumour xenografts; single dose of 1 nmol, by day 14",equally efficacious in slowing tumour growth
same,tumour regression with T-DM1 and IR,[13]; [14],significantly prolonged tumour regression
same,"Tumour doubling time in days (mean, 95% CI)",[13]; [15],113 (82–179) days
same,"Tumour doubling time in days (mean, 95% CI)","[13]; 0.25 nmol i.v. day 0, no IR",23 (21–25) days
same,"Tumour doubling time in days (mean, 95% CI)","HCT116 tumour xenografts; 0.25 nmol i.v. day 0, +IR 2.5 Gy on days 1, 2 and 3",7 (5–12) days
same,"Tumour doubling time in days (mean, 95% CI)","HCT116 tumour xenografts; 0.25 nmol i.v. day 0, no IR",3 (2–5) days
same,benefit of adding T-DM1 to IR,"HCT116 tumour xenografts; HER2- HCT116, 0.25 nmol day 0, 2.5 Gy days 1, 2 and 3",no benefit of adding T-DM1 to IR
same,cells in G2/M in tumours (pS10 Histone H3 IHC),OE19 tumours,increased the number of cells in radiosensitive G2/M phase
